# From article PMC12470260, “Functional Divergence of Two General Odorant-Binding Proteins to Sex Pheromones and Host Plant Volatiles in Adoxophyes orana (Lepidoptera: Tortricidae)” (Insects, 2025)
# Values joined by “and” are separate entries in the source; they are usually repeats but may differ in a detail not shown here. Equal entries are not always repeated.
# Experiments:
# [1] = biological target: AoraGOBP1; test: Fluorescence competitive binding assay (1-NPN probe) with rAoraGOBP1; parameters: species or system Adoxophyes orana; conditions: for Ki: competitive displacement of 1-NPN, 20 mM Tris-HCl pH 7.4, mean ± S.E.M., read-out: Ki (μM) GOBP1; for Binding affinity to AoraGOBP1 (in words): fluorescence competitive binding
# Protocol: (§1) The fluorescent competitive binding assays were conducted using an F-2700 spectrophotofluorometer (Hitachi, Tokyo, Japan) to evaluate the binding affinities of AoraGOBP1 and AoraGOBP2 to sex pheromones, and HPVs. […] With the increase of 1 − NPN concentration, the change in fluorescence intensity decreased and eventually stabilized, and the data were recorded. Binding dissociation constant K1−NPN (Kd) of 1 − NPN to rAoraGOBPs were determined. Then, 2 mL protein solution containing 2 μM rAoraGOBPs was titrated with 1 μM of each ligand to a final concentration of 18 µM. The fluorescence intensity was measured and recorded after a 2 min reaction. The Ki for competitive binding of each ligand to rAoraGOBPs using the formula Ki = [IC50]/(1 + [1 − NPN]/K1−NPN), where IC50 is the ligand concentration corresponding to 50% displacement of 1 − NPN. Each assay was replicated three times biologically. The Kd and Ki are presented as mean ± S.E.M.
# [2] = biological target: AoraGOBP2; test: Fluorescence competitive binding assay (1-NPN probe) with rAoraGOBP2; parameters: species or system Adoxophyes orana; conditions: for Ki: competitive displacement of 1-NPN, 20 mM Tris-HCl pH 7.4, mean ± S.E.M., read-out: Ki (μM) GOBP2
# Protocol: as §1
# [3] = fluorescent probe titration, 2 μM protein, pH 7.4
Compound,Ki ([1]; 2 μM protein),Ki ([2]; 2 μM protein),other results
CC(C)=CCCC(C)=CC=O (mixture of isomers) [Citral],11.7 ± 0.44 µM,,
"c1ccc(Nc2cccc3ccccc23)cc1 [1 − NPN, reference compound]",,,"Kd [1, 3]: 18.4 µM; Kd [2, 3]: 1.65 µM"
C=CC(O)CC (stereo not shown) [1-Penten-3-ol],10.2 ± 0.14 µM,,
CCCCCCCCCCCCO [12:OH],,1.74 ± 0.03 µM,
CC/C=C\CCOC(=O)CC(C)C [(Z)-3-Hexen-1-yl 3-methylbutanoate],6.21 ± 0.18 µM,,
CCCCCCCCCC=O [Decanal],0.78 ± 0.15 µM,,
CCCCOC(=O)c1ccccc1C(=O)OCCCC [Dibutyl phthalate],10.27 ± 0.07 µM,5.33 ± 0.04 µM,
CCOC(=O)C(C)CC (stereo not shown) [Ethyl 2-methylbutanoate],11.78 ± 0.08 µM,,
CC(C)=CCC/C(C)=C/CC/C(C)=C/CO [Farnesol],,1.13 ± 0.02 µM,
Farnesene,,6.96 ± 0.32 µM,

# The next lines start with results.
Ki ([1]; 2 μM protein),Ki ([2]; 2 μM protein),Compound,other results
11.9 ± 0.41 µM,,CC(C)C=O [Isobutyraldehyde],
4.41 ± 0.2 µM,,COC(=O)c1ccccc1O [Methyl salicylate],
5.08 ± 0.13 µM,,CCCCC/C=C\C=C\C(=O)OCC [Pear ester],
,6.46 ± 0.18 µM,"CCCC/C=C\CCCCCCCCOC(C)=O [Z9-14:Ac, (Z)-9-tetradecenyl acetate]",Binding affinity to AoraGOBP1 (in words) [1]: did not; Binding affinity to AoraGOBP2 (in words) ([2]; fluorescence competitive binding): moderate binding affinity
,1.49 ± 0.01 µM,"CCCC/C=C\CCCCCCCCO [Z9-14:OH, (Z)-9-tetradecen-1-ol]",Binding affinity to AoraGOBP1 (in words) [1]: did not
,1.21 µM and 1.24 µM,"CCCC/C=C\CCCCCCCCO [Z11-14:OH, (Z)-9-tetradecen-1-ol]",Binding affinity to AoraGOBP1 (in words) [1]: did not
